In patent US9738668B2:
Entries after “also recorded” stand apart in the source; their conditions may differ.

Tests used:
[1] = system: brain mitochondria; experiment: Mitochondria swelling assay in response to Ca2+; set-up: species or system mice; conditions: for calcium-mediated mitochondrial swelling: with calcium
Protocol: Brain from mice without white matter was used for mitochondrial isolation. Brain was homogenized in 9 ml of ice-cold EB buffer (1 mmol EDTA, 1-6 mg/ml BSA) using a Dounce homogenizer until no particles could be seen. Homogenates were centrifuged at 1300×g for 5 minutes. Supernatant from this fraction was carefully laid on top of a 15% PERCOLL solution (10 ml) and then centrifuged at 16000 RPM for 10 minutes. The pellet was carefully mixed with 9 ml of mitochondrial buffer (4.098% D-mannitol, 2.56% sucrose, 0.034% K2HPO4, pH 7.3-7.4) and 200 μl of 1% digitonin. After 5 minutes incubation on ice, the mixture was centrifuged at 8000 RPM for 10 minutes. Mitochondrial pellet was washed once with mitochondrial buffer. Subsequently, the mitochondrial pellet was resuspended in 100 μl of mitochondrial buffer and was used for further experiments.
A proper amount of mitochondria was resuspended into 1 ml swelling assay buffer (150 mM KCl, 2 mM KH2PO4, 10 mM HEPES, pH 7.4) and energized by 1 mM glutamate and 1 mM malate. Calcium at varying concentrations was added into the assay buffer to trigger mitochondrial swelling. Mitochondrial permeability transition was determined by studying the rate of change in absorbance at 540 nm via a spectrophotometer.
Given that the Compounds 4, 8 and 15 could inhibit ABAD activity, it was determined whether these same compounds could decrease mitochondrial permeability transition pore (mPTP) formation.

[2] = system: SK-N-SH cells; experiment: Mitochondrial cytochrome c oxidase (CcO) activity in Aβ-treated cells; type: cell-based; conditions: for CcO activity, inhibitor alone: 1 μM inhibitor without Aβ; for CcO activity: 5 μM oligomer Aβ1-42 plus 1 μM inhibitor, 48 hours
Protocol: SK-NSH cells were treated with 5 μM oligomer Aβ plus 1 μM of ABAD inhibitor; inhibitor alone; vehicle (VEH) without inhibitor; or Aβ alone. Forty-eight hour later, CcO activity (μmol protein mg^−1 min^−1) was measured in cell lysates.
The CcO activity was measured according to known methods (Du, et al. (2008) Nat. Med. 14:1097-105) with a cytochrome c oxidase kit (Sigma). In brief, SK-N-SH cells were incubated with ABAD inhibitor and oligomer Aβ for 48 hours. After washing the cells twice with PBS, the cells were collected and concentration was determined by the Bradford method. A suitable volume of cells and enzyme solution was added to 475 μl assay buffer. The reaction was triggered by the addition of 25 μl freshly prepared ferrocytochrome C substrate solution into the cuvette. Changes in OD550 nm were recorded immediately with an Amersham Biosciences ULTROSPECT 3100 pro spectrophotometer.
To assess the effect of ABAD inhibitor on Aft-induced mitochondrial respiratory function, CcO activity was determined.

[3] = system: SK-N-SH cells; experiment: ATP levels in Aβ-treated cells; type: cell-based; conditions: for ATP levels: 5 μM Aβ1-42 plus 1 μM inhibitor; for ATP levels, inhibitor alone: inhibitor without Aβ
Protocol: Forty-eight hour later, ATP levels (μmol mg^−1 protein) were measured in cell lysates.
To determine the effect of ABAD inhibitors on Aβ-induced impairment in energy metabolism, ATP levels were measured. […] ATP levels were measured in the cell lysates. […] Therefore, ABAD inhibitors can block mitochondrial dysfunction mediated by Aβ.

[4] = system: cells; experiment: MTT reduction assay (cell survival and toxicity); type: cell-based; conditions: 1, 10, 50, 100 μM, 48 to 66 hours
Protocol: The MTT (3-(4,5-dimethylthiazol-2-yl)-2,5-diphenyltetrazolium bromide) assay, which is widely used to measure cell proliferation and to screen for anticancer drugs, was used for assessing cell viability. Cells were treated with a range of ABAD compounds at 1, 10, 50, and 100 μM for 48 hours and then subjected to MTT reduction assay following the manufacture's instruction.
The effect of ABAD inhibitors on cell viability and toxicity was assessed using MTT reduction assay and trypan blue exclusion, which are widely used to assess cell survival and toxicity and to screen for drugs toxicity. Cells were treated with a range of concentrations of ABAD compound (4 and 8) at 1, 10, 50, 100 μM for 48 to 66 hours.

[5] = Solubility in solvents during LC method development; type: physicochemical
Protocol: During the development of a detection method for analytes 4, 8 and 15, multiple solvents were tested to find the optimal mobile phase. […] Acetonitrile was selected for better peak shape and compatibility with serum/brain protein precipitation. Compounds 8 and 15 were chosen as IS, because of their structural similarity. Selected reaction monitoring (SRM) acquisitions were used for sensitivity and extended dynamic range. The cone voltage and collision energy were optimized for 4, 8 and 15 and the IS by continuously infusing a mixture of the two. The optimum cone voltage was 30V.

[6] = system: mAPP mice; experiment: Morris water maze learning and memory in Alzheimer's Disease transgenic mice; type: in vivo; conditions: for latency to find the hidden platform: treated vs untreated AD mice; for number of crossings at the target location / percent of time spent in the target quadrant: treated vs untreated mAPP mice, probe trial
Protocol: Wild-type mice (Non Tg) were also administered Compound 8 (n=5) and vehicle (n=5). Each mouse was given four 60-second trials per day for six consecutive days to find the hidden platform in a Morris water maze.
Wild-type mice were also administered Compound 8 […]. Each mouse was given four 60-second trials per day for seven consecutive days to find the hidden platform in a Morris water maze.
Each mouse was given four 60-second trials per day for six consecutive days to find the hidden platform in a Morris water maze.
In addition, the effect of Compounds 4 and 8 on learning and memory of Alzheimer's Disease (AD) transgenic mice was evaluated. Six month and 9-14 month-old transgenic mice overexpressing a mutated form of the human amyloid precursor protein (mAPP mice) and their wild-type (non Tg) littermates were used in this study. […] Moreover, performance in a spatial MWM trial was evaluated using crossings over the platform area (an index of memory precision; Morris (1984) J. Neurosci. Methods 11:47-60), percent of time spent in target quadrant (an index of memory retrieval; Morris (1984) J. Neurosci. Methods 11:47-60), and swim paths.

[7] = system: hippocampal long-term potentiation; experiment: Hippocampal long-term potentiation (LTP) in slices from treated mice; type: in vivo; conditions: hippocampal slices from treated mAPP mice
Protocol: LTP was induced by theta-burst stimulation (TBS) 20 minutes after baseline recordings in hippocampal slices from Non-Tg mice treated with vehicle (n=9 slices from 3 mice), Non-Tg mice treated with Compound 8 (n=9 slices from 3 mice), mAPP mice treated with vehicle (n=8 slices from 3 mice), and mAPP mice treated with Compound 8 (n=8 slices from 3 mice). LTP is expressed as percentage potentiation of baseline (100%)(FIG. 5A).
LTP is expressed as percentage potentiation of baseline (100%)(FIG. 7A).
Synaptic failure in AD is largely reflected by impaired long-term synaptic plasticity in terms of long-term potentiation (LTP). […] Representative field excitatory post-synaptic potentials (fEPSP) waveforms are provided in FIGS. 5A and 7A and the residual potentiation from fEPSP slopes occurring over the last 5 minutes of LTP recording are provided in FIGS. 5B and 7B.

COC(=O)c1cc([C@H](Nc2nc3ccc(OC)cc3s2)P(=O)(OC)OC)ccc1O [Compound 4, Methyl 5-((dimethoxyphosphoryl)((6-methoxybenzo[d]thiazol-2-yl)amino)methyl)-2-hydroxybenzoate]
calcium-mediated mitochondrial swelling [1]: antagonized calcium-mediated mitochondrial swelling | mitochondrial swelling without calcium [1]: did not affect mitochondrial swelling | CcO activity, inhibitor alone [2]: had no effect on CcO activity | CcO activity [2]: reversed the Aβ-mediated decrease of CcO activity | ATP levels [3]: rescued ATP levels | ATP levels, inhibitor alone [3]: comparable to cells treated with vehicle alone | MTT reduction [4]: did not exhibit decreased MTT reduction | solubility in methanol or acetonitrile [5]: dissolved readily | solubility in water [5]: dissolved partially | latency to find the hidden platform [6]: significantly shorter latency | number of crossings at the target location [6]: significantly more | percent of time spent in the target quadrant [6]: significantly more | hippocampal long-term potentiation (LTP) [7]: impairments were diminished; also recorded: protective effects

COc1ccc2nc(N[C@@H](c3ccc(O)cc3)P(=O)(OC)OC)sc2c1 (racemic) [Compound 8, Dimethyl ((4-hydroxyphenyl)((6-methoxybenzo[d]thiazol-2-yl)amino)methyl)phosphonate]
calcium-mediated mitochondrial swelling [1]: antagonized calcium-mediated mitochondrial swelling | mitochondrial swelling without calcium [1]: did not affect mitochondrial swelling | CcO activity, inhibitor alone [2]: had no effect on CcO activity | CcO activity [2]: reversed the Aβ-mediated decrease of CcO activity | ATP levels [3]: rescued ATP levels | ATP levels, inhibitor alone [3]: comparable to cells treated with vehicle alone | MTT reduction [4]: did not exhibit decreased MTT reduction | solubility in methanol or acetonitrile [5]: dissolved readily | solubility in water [5]: dissolved partially | latency to find the hidden platform [6]: significantly shorter latency | number of crossings at the target location [6]: significantly more | percent of time spent in the target quadrant [6]: significantly more | hippocampal long-term potentiation (LTP) [7]: impairments were diminished; also recorded: protective effects
